Reference: patent US4237307A, “15-Deoxy-16-hydroxy-16-methyl-Δ19-prostaglandins of the E and F series” (American Cyanamid Company, priority 1979, dated 1980)

How the values were obtained:
Format in all cases: in vivo, Guinea-Pigs
[1] = test system: bronchospasms elicited by intravenous injections of serotonin; test: Konzett procedure: bronchodilator activity against serotonin-induced bronchospasm, i.v.; details: Cavia porcellus; guinea pig; spasmogen serotonin i.v.; three logarithmic cumulative intravenous doses
Protocol: (§1) The bronchodilator activity for representative compounds of this invention was determined in Guinea-Pigs against bronchospasms elicited by intravenous injections of serotonin, histamine, and acetylcholine, by the Konzett procedure the details of which are those discussed by J. Lulling, P Lievens, F. El Sayed and J. Prignot, Arzeimittel-Forschung 18, 995 (1968).
(§2) In the table which follows, bronchodilator activity for representative compounds of the invention against spasmogenic agents serotonin, histamine, and acetylcholine is expressed as an ED50 determined from the results obtained with three logarithmic cumulative intravenous doses.

[2] = test system: bronchospasms elicited by intravenous injections of histamine; test: Konzett procedure: bronchodilator activity against histamine-induced bronchospasm, i.v.; details: Cavia porcellus; guinea pig; spasmogen histamine i.v.; three logarithmic cumulative intravenous doses
Protocol: as §1, §2

[3] = test system: bronchospasms elicited by intravenous injections of acetylcholine; test: Konzett procedure: bronchodilator activity against acetylcholine-induced bronchospasm, i.v.; details: Cavia porcellus; guinea pig; spasmogen acetylcholine i.v.; three logarithmic cumulative intravenous doses
Protocol: as §1, §2

C=CCCC(C)(O)C/C=C/[C@H]1[C@H](O)CC(=O)[C@@H]1C/C=C\CCCC(=O)O (relative stereo) [dl-11α,16-DIHYDROXY-9-OXO-16-METHYL-5-cis-13-trans-Δ^19 PROSTATRIENOIC ACID]
ED50 [1]: 3.8 µg/kg
ED50 [2]: 6.4 µg/kg
ED50 [3]: 10.6 µg/kg
